Here are results for 1 compound from ChEMBL document CHEMBL1149790, “Synthesis of some novel thiourea derivatives obtained from 5-[(4-aminophenoxy)methyl]-4-alkyl/aryl-2,4-dihydro-3H-1,2,4-triazole-3-thiones and evaluation as antiviral/anti-HIV and anti-tuberculosis agents” (Eur J Med Chem, 2008).

SMILES strings stand for the structures. Converted amounts (≈) assume the structure as drawn.

For this assay, the system named is Mycobacterium tuberculosis. Kind of assay: Antitubercular activity against Mycobacterium bovis BCG. Type of assay: functional. The following applies: variant bovis BCG.

Consider `CC(C)CCOc1ccc(NC(=S)Nc2ccc(OCCC(C)C)cc2)cc1` [TIOCARLIDE], for which 0.5 µg/mL (≈ 1.25 µM) was the least that counted as inhibitory (MIC).
